Assays:
Assay in all cases: relative viability (nuclei count vs DMSO), 5 days (fraction); higher = more cells survive
KIN001-266 + Bortezomib = compound: CCN1CCC(CC1)N2C=C(N=N2)CNC3=CC4=C(C(=CN=C4C(=C3)Cl)C#N)NC5=CC(=C(C=C5)F)Cl [KIN001-266] + CC(C)C[C@H](NC(=O)[C@H](Cc1ccccc1)NC(=O)c1cnccn1)B(O)O [Bortezomib] (partner 0.002 µM)
Method in brief: (§1)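 Relative viability was taken as the ratio of nuclei in treated wells to nuclei in vehicle wells. Lung cancer cell lines in 1536-well plates received compounds by pin tool one day after seeding, either one drug alone or a fixed anchor-drug dose plus five library-drug doses (not always all listed) in √10 steps. Nuclei were counted on 4× images after 5 days of treatment, and values are medians of duplicate plates.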

KIN001-266 + Pemetrexed = compound: CCN1CCC(CC1)N2C=C(N=N2)CNC3=CC4=C(C(=CN=C4C(=C3)Cl)C#N)NC5=CC(=C(C=C5)F)Cl [KIN001-266] + Nc1nc2[nH]cc(CCc3ccc(C(=O)N[C@@H](CCC(=O)O)C(=O)O)cc3)c2c(=O)[nH]1 [Pemetrexed] (partner 0.2 µM)
Method in brief: as §1

KIN001-266 + Olaparib = compound: CCN1CCC(CC1)N2C=C(N=N2)CNC3=CC4=C(C(=CN=C4C(=C3)Cl)C#N)NC5=CC(=C(C=C5)F)Cl [KIN001-266] + O=C(c1cc(Cc2n[nH]c(=O)c3ccccc23)ccc1F)N1CCN(C(=O)C2CC2)CC1 [Olaparib] (partner 8 µM)
Method in brief: as §1

KIN001-266 + Alpelisib = compound: CCN1CCC(CC1)N2C=C(N=N2)CNC3=CC4=C(C(=CN=C4C(=C3)Cl)C#N)NC5=CC(=C(C=C5)F)Cl [KIN001-266] + Cc1nc(NC(=O)N2CCC[C@H]2C(N)=O)sc1-c1ccnc(C(C)(C)C(F)(F)F)c1 [Alpelisib] (partner 2 µM)
Method in brief: as §1

Cell Line | relative viability (KIN001-266 + Bortezomib; first compound 0.08 µM) | relative viability (KIN001-266 + Bortezomib; first compound 0.253 µM) | relative viability (KIN001-266 + Bortezomib; first compound 0.8 µM) | relative viability (KIN001-266 + Bortezomib; first compound 2.53 µM) | relative viability (KIN001-266 + Bortezomib; first compound 8 µM) | relative viability (KIN001-266 + Pemetrexed; first compound 0.08 µM) | relative viability (KIN001-266 + Pemetrexed; first compound 0.253 µM) | relative viability (KIN001-266 + Pemetrexed; first compound 0.8 µM) | relative viability (KIN001-266 + Pemetrexed; first compound 2.53 µM) | relative viability (KIN001-266 + Pemetrexed; first compound 8 µM) | relative viability (KIN001-266 + Olaparib; first compound 0.08 µM) | relative viability (KIN001-266 + Olaparib; first compound 0.253 µM) | relative viability (KIN001-266 + Olaparib; first compound 0.8 µM) | relative viability (KIN001-266 + Olaparib; first compound 2.53 µM) | relative viability (KIN001-266 + Olaparib; first compound 8 µM) | relative viability (KIN001-266 + Alpelisib; first compound 0.08 µM) | relative viability (KIN001-266 + Alpelisib; first compound 0.253 µM) | relative viability (KIN001-266 + Alpelisib; first compound 0.8 µM) | relative viability (KIN001-266 + Alpelisib; first compound 2.53 µM) | relative viability (KIN001-266 + Alpelisib; first compound 8 µM)
HOP-62 | 0.563 | 0.565 | 0.575 | 0.779 | 1.07 | 0.313 | 0.304 | 0.469 | 0.353 | 0.381 | 0.5 | 0.475 | 0.381 | 0.46 | 0.319 | 1.09 | 1.21 | 0.967 | 1.02 | 0.84
LC-2-ad | 0.954 | 0.948 | 1.02 | 1.03 | 0.956 | 0.288 | 0.301 | 0.272 | 0.271 | 0.275 | 0.706 | 0.727 | 0.664 | 0.693 | 0.635 | 0.897 | 0.776 | 0.918 | 0.783 | 0.869
LCLC-97TM1 | 0.679 | 0.595 | 0.489 | 0.731 | 0.337 | 0.193 | 0.191 | 0.171 | – | 0.227 | 0.302 | 0.295 | 0.406 | – | 0.167 | 0.268 | 0.217 | 0.236 | 0.222 | 0.236
LCLC-103H | 1.18 | 1.15 | 1.08 | 1.08 | 0.986 | 0.471 | 0.482 | 0.47 | 0.426 | 0.514 | 0.727 | 0.762 | 0.722 | 0.742 | 0.756 | 0.906 | 0.975 | 0.951 | 0.972 | 0.808
LOU-NH91 | 0.499 | 0.497 | 0.428 | 0.513 | 0.443 | 0.369 | 0.392 | 0.385 | 0.378 | 0.425 | 0.909 | 0.903 | 0.761 | 0.842 | 0.757 | 0.735 | 0.724 | 0.501 | 0.676 | 0.588
LU99A | 1.31 | 1.17 | 1.11 | 1.02 | 0.982 | 0.168 | 0.172 | 0.124 | 0.182 | 0.217 | 0.271 | 0.283 | 0.2 | 0.213 | 0.164 | 0.66 | 0.606 | 0.442 | 0.438 | 0.442
LXF-289 | 0.954 | 0.987 | 0.95 | 0.972 | 1.03 | 0.839 | 0.861 | 0.855 | 0.771 | 1.01 | 1.01 | 1.02 | 1.03 | 1.01 | 1.03 | 1.05 | 1.03 | 1.01 | 1.05 | 1.03
NCI-H23 | 1.14 | 1.1 | 1.04 | 0.916 | 0.642 | 0.627 | 0.634 | 0.658 | 0.643 | 0.596 | 0.334 | 0.303 | 0.321 | 0.309 | 0.251 | 0.768 | 0.646 | 0.733 | 0.663 | 0.695
NCI-H322M | 1.16 | 1.43 | 1.34 | 1.23 | 1.18 | 0.598 | 0.611 | 0.628 | 0.461 | 0.666 | 0.802 | 0.737 | 0.764 | 0.72 | 0.698 | 0.648 | 0.87 | 0.8 | 0.694 | 0.689
NCI-H441 | 0.603 | 0.811 | 0.478 | 0.457 | 0.554 | 0.251 | 0.253 | 0.233 | 0.261 | 0.248 | 0.504 | 0.645 | 0.562 | 0.455 | 0.444 | 0.75 | 0.822 | 0.73 | 0.793 | 0.496
NCI-H460 | 1.01 | 1.18 | 1.16 | 0.988 | 1.06 | 0.06 | 0.0695 | 0.065 | 0.0681 | 0.0901 | 0.418 | 0.447 | 0.466 | 0.308 | 0.409 | 0.609 | 0.581 | 0.484 | 0.485 | 0.413
NCI-H520 | 0.633 | 0.677 | 0.535 | 0.544 | 0.675 | 0.709 | 0.714 | 0.671 | 0.565 | 0.65 | 0.339 | 0.299 | 0.374 | 0.267 | 0.239 | 0.817 | 0.929 | 1.08 | 0.646 | 0.801
NCI-H596 | 0.919 | 1.17 | 1.05 | 1.04 | 0.947 | 0.451 | 0.481 | 0.498 | 0.403 | 0.477 | 0.744 | 0.723 | 0.662 | 0.712 | 0.756 | 0.492 | 0.445 | 0.431 | 0.534 | 0.398

Source: the supplement of paper PMC10307832
